Among the test systems are NCI-H460 lung; SN12C renal; UACC-62 melanoma; NCI/ADR-RES ovarian; CAKI-1 renal; MDA-MB-435; RPMI-8226 leukemia; BT-549 breast; SR leukemia; SK-MEL-5 melanoma; EKVX NSCLC; OVCAR-5 ovarian; HT29 colon.
Holding throughout (assay): DTP human tumour cell line panel, 48 h

Structures are written as SMILES.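 Values below derive from 48-hour exposures of cells grown in 96-well plates, with endpoints linearly interpolated between the two concentrations bracketing the appropriate inhibition level. TGI denotes the concentration required for complete inhibition of growth.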 *1 amine or outer side, *2 acyl side, *3 side chain or, on linkers, in order; H or OH if unused. Where a SMILES comes first, the peptide text is derived from it. Bridges are numbered along the chain shown (N, C = ends). [ ]: non-standard residue; d: D form. The star is where a group is joined. ξ: configuration not given here. X34 = O=C(C(CCCCNO[*:3])N[*:1])[*:2]; Fmoc = O=C(OCC1c2ccccc2-c2ccccc21)*; ξW = NC(Cc1c[nH]c2ccccc12)C(=O)O; ξP = O=C(O)C1CCCN1

As for `CCOC(=O)CNC(=O)C(CSCc1ccc(Br)cc1)NC(=O)CCC(N)C(=O)OCC` (stereo not given), the TGI with NCI-H460 lung, in the test on SN12C renal, in the test with UACC-62 melanoma, with NCI/ADR-RES ovarian, in the test on CAKI-1 renal and in the test with MDA-MB-435 was above 50 µM each time. In addition, the TGI in the test with RPMI-8226 leukemia, in the test with BT-549 breast, with SR leukemia, with SK-MEL-5 melanoma, with EKVX NSCLC and in the test on OVCAR-5 ovarian was above 50 µM each time. Also, in the test on HT29 colon, the TGI was above 50 µM.

Regarding `NC(C(F)(F)F)(C(F)(F)F)P(=O)(Cc1ccccc1)Cc1ccccc1`, the TGI in the test with NCI-H460 lung, in the test with SN12C renal, in the test with UACC-62 melanoma, with NCI/ADR-RES ovarian, in the test on CAKI-1 renal and in the test with MDA-MB-435 was above 100 µM each time. The TGI with RPMI-8226 leukemia, in the test with BT-549 breast, with SR leukemia, in the test on SK-MEL-5 melanoma, in the test with EKVX NSCLC and in the test on OVCAR-5 ovarian was above 100 µM each time. In the test on HT29 colon, this compound displayed a TGI above 100 µM.

Regarding `CN(C)/N=N/c1nc2c(c(=O)n(C)c(=O)n2C)n1C`, the TGI in the test on NCI-H460 lung, with SN12C renal, in the test on UACC-62 melanoma, with NCI/ADR-RES ovarian, with CAKI-1 renal and with MDA-MB-435 was above 100 µM each time. In addition, the TGI in the test with RPMI-8226 leukemia, with BT-549 breast, in the test with SR leukemia, in the test on SK-MEL-5 melanoma, in the test on EKVX NSCLC and with OVCAR-5 ovarian was above 100 µM in each case. In the test on HT29 colon, the TGI is above 100 µM.

Turning to `NC(=O)CNC(=O)C1CCCN1C(=O)C1CCCCNOC(=O)CC[C@@H](NC(=O)OCC2c3ccccc3-c3ccccc32)C(=O)NC(Cc2c[nH]c3ccccc23)C(=O)N1` (stereo not given in full) (Fmoc-[dE][ξW][X34][ξP]G-NH2; ester 1-3), the TGI with NCI-H460 lung, in the test on SN12C renal, in the test on UACC-62 melanoma, in the test with NCI/ADR-RES ovarian, in the test on CAKI-1 renal and with MDA-MB-435 was above 100 µM throughout. Further, the concentration for total growth inhibition (TGI) in the test with RPMI-8226 leukemia, in the test with BT-549 breast, in the test with SR leukemia, in the test with SK-MEL-5 melanoma, in the test on EKVX NSCLC and in the test with OVCAR-5 ovarian was above 100 µM throughout. In the test with HT29 colon, this compound gave a TGI above 100 µM.

As to `CC1(O)CC(C(F)(F)F)(C(F)(F)F)OC1=O` (stereo not given), the total growth inhibition concentration (TGI) with NCI-H460 lung, in the test with SN12C renal, in the test on UACC-62 melanoma, with NCI/ADR-RES ovarian, in the test with CAKI-1 renal and in the test on MDA-MB-435 was above 10 µM in each case. Moreover, the TGI with RPMI-8226 leukemia, in the test with BT-549 breast, in the test with SR leukemia, in the test on SK-MEL-5 melanoma, in the test with EKVX NSCLC and in the test on OVCAR-5 ovarian was above 10 µM each time. In the test on HT29 colon, the TGI was above 10 µM.

As for `O=C(O)c1cc2c(cc1CC(Cc1ccc3c(c1)CCC3)C(=O)O)CCC2` (stereo not given), the TGI in the test on NCI-H460 lung, in the test on SN12C renal, in the test on NCI/ADR-RES ovarian, with CAKI-1 renal, with MDA-MB-435 and with RPMI-8226 leukemia was above 100 µM throughout. The TGI with BT-549 breast, with SR leukemia, in the test with SK-MEL-5 melanoma, with EKVX NSCLC, with OVCAR-5 ovarian and in the test with HT29 colon was above 100 µM throughout.

`COCOC1/C=C/CCCC#C[C@H](C)C(=O)CC1` (stereo not given in full): the TGI with NCI-H460 lung stood at 25.5 µM; in the test with SN12C renal, 23.6 µM; in the test on UACC-62 melanoma, 22.6 µM; with NCI/ADR-RES ovarian, 29 µM; in the test with CAKI-1 renal, 24.7 µM; in the test on MDA-MB-435, 19.5 µM. Moreover, the TGI in the test with RPMI-8226 leukemia is 7.63 µM; in the test on BT-549 breast, 27.1 µM; in the test with SR leukemia, above 33.2 µM; in the test on SK-MEL-5 melanoma it was 21.7 µM; in the test on EKVX NSCLC, 23.1 µM; with OVCAR-5 ovarian, 20.1 µM. The compound also had a TGI in the test on HT29 colon of 13.6 µM.

In the case of `Nc1cc(CO)cc(Nc2nc3ccc(Cl)cc3c3[nH]c4ccccc4c23)c1`, the TGI in the test with NCI-H460 lung is 6.56 µM; in the test on SN12C renal, 12.9 µM; in the test with UACC-62 melanoma, 5.55 µM; in the test on NCI/ADR-RES ovarian it was 42.5 µM; in the test with CAKI-1 renal, 8.33 µM; in the test on MDA-MB-435, 15.3 µM. In addition, the TGI with RPMI-8226 leukemia turned out to be 9.78 µM; in the test with BT-549 breast, 24.6 µM; in the test with SR leukemia it was 7.33 µM; with EKVX NSCLC, 15.1 µM; with OVCAR-5 ovarian, 17.6 µM; in the test on HT29 colon, 11.7 µM.

For the compound `Nc1nc2cc3nc(N)c(N)nc3cc2nc1N`, the TGI with NCI-H460 lung, in the test with SN12C renal, in the test with UACC-62 melanoma, with NCI/ADR-RES ovarian, with CAKI-1 renal and in the test with MDA-MB-435 was above 100 µM each time. The TGI in the test on RPMI-8226 leukemia, in the test with BT-549 breast, in the test on SR leukemia, with SK-MEL-5 melanoma, in the test with EKVX NSCLC and in the test on OVCAR-5 ovarian was above 100 µM throughout. Moreover, in the test on HT29 colon, the TGI is above 100 µM.

For `CC(C)(N=NC(C)(C)C(=O)NCCO)C(=O)NCCO`, the TGI in the test on NCI-H460 lung, in the test on SN12C renal, in the test on UACC-62 melanoma, in the test on NCI/ADR-RES ovarian, with CAKI-1 renal and in the test on MDA-MB-435 was above 100 µM each time. Moreover, the total growth inhibition concentration (TGI) in the test on RPMI-8226 leukemia, with BT-549 breast, with SR leukemia, in the test on SK-MEL-5 melanoma, with EKVX NSCLC and with OVCAR-5 ovarian was above 100 µM in each case. The compound further gave a TGI with HT29 colon above 100 µM.

With `Cc1nc(-c2ccc([N+](=O)[O-])cc2)cn2c1nc1ccccc12`, the TGI in the test on NCI-H460 lung was above 100 µM; with SN12C renal, above 100 µM; in the test on UACC-62 melanoma it was 53.8 µM; in the test on NCI/ADR-RES ovarian, above 100 µM; in the test with CAKI-1 renal, above 100 µM; in the test with MDA-MB-435 it was above 100 µM. The TGI with RPMI-8226 leukemia, in the test on BT-549 breast, with SR leukemia, in the test with EKVX NSCLC, in the test with OVCAR-5 ovarian and with HT29 colon was above 100 µM in each case.

The record behind these values is PubChem BioAssay (NCI).
